Data taken from patent publication US20250059174A1, “Pharmaceutical Compounds and Compositions as C-Kit Kinase Inhibitors” (Enanta Pharmaceuticals, Inc., priority 2023, published 2025).

Experiments:
[1] = target: Recombinant human c-KIT kinase (Homo sapiens (Human), UniProt P10721); assay: c-KIT kinase chemiluminescence assay (ADP-Glo); format: biochemical; conditions: ATP 50 μM
Procedure, shortened: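 ADP formed by c-KIT on polyEY over 2 h at RT (after 30 min enzyme preincubation; Tris pH 7.5, MgCl2, BSA, DTT buffer) was detected by ADP-Glo luminescence. IC50 and Hill slope were fitted to control-normalized activity across compound concentrations.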

[2] = test system: M-07e cells; assay: M-07e cellular assay (SCF-mediated cell proliferation); format: cell-based; conditions: Homo sapiens, 72 hours, CellTiter Glo
Procedure, shortened: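 Readout came from CellTiter Glo after 72 h of compound treatment in SCF (EC90)-stimulated, pre-starved M-07e cells at 37 °C.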

Chain of Recombinant human c-KIT kinase (P10721 26-976): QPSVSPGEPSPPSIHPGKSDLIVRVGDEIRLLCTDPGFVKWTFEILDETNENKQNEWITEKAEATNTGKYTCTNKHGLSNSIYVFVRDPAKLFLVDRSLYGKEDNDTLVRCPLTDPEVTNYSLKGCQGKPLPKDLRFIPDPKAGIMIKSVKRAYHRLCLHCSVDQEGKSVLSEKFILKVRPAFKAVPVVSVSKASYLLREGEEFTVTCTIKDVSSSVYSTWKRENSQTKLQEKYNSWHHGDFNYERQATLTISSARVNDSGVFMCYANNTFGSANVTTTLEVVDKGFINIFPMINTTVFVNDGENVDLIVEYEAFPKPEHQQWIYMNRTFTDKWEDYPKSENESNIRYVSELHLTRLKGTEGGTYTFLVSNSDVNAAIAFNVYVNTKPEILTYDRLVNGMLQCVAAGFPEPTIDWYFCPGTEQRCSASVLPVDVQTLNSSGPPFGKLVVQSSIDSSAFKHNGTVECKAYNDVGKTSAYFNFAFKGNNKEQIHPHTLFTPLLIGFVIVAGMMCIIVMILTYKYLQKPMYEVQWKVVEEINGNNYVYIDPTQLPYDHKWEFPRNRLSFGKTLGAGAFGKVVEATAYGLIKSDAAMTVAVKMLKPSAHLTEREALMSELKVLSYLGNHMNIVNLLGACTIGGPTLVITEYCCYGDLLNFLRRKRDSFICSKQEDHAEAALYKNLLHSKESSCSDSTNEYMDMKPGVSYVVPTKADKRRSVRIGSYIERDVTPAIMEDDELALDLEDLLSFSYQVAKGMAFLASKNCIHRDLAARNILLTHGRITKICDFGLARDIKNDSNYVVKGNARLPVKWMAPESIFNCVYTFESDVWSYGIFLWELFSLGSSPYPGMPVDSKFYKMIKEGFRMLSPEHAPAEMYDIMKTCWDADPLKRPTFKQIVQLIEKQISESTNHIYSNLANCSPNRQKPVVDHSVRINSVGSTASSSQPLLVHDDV

Row | Structure (SMILES) | IC50 [1] | EC50 [2]
1 | CC(=O)N1CCC(c2nc(-c3cnc(C)c(NC(=O)c4cnn5ccc(N6CC7(COC7)C6)cc45)c3)no2)C1 (centres unmarked) [Example 281-74] | > 1000 nM | > 1000 nM
2 | CC(=O)N1CCC(c2nc(-c3cnc(C)c(NC(=O)c4cnn5ccc(N6CC7(COC7)C6)cc45)c3)no2)CC1 [Example 281-75] | > 1000 nM | > 1000 nM
3 | CC(=O)N1CC2(CC(c3nc(-c4cnc(C)c(NC(=O)c5cnn6ccc(N7CC8(COC8)C7)cc56)c4)no3)C2)C1 [Example 281-76] | > 1000 nM | > 1000 nM
4 | COC(=O)N1CC(c2nc(-c3cnc(C)c(NC(=O)c4cnn5ccc(N6CC7(COC7)C6)cc45)c3)no2)C1 [Example 281-77] | 100 to 1000 nM | 100 to 1000 nM
5 | COC(=O)N1CC(c2nc(-c3cnc(C)c(NC(=O)c4cnn5ccc(N6CC7(C6)CC(O)(C(F)F)C7)cc45)c3)no2)C1 [Example 281-78] | < 100 nM | < 100 nM
6 | Cc1ncc(-c2noc(C3CN(C(=O)[C@H]4C[C@@H]4F)C3)n2)cc1NC(=O)c1cnn2ccc(N3CC4(C3)CC(O)(C(F)F)C4)cc12 [Example 281-79] | > 1000 nM | > 1000 nM
7 | Cc1ncc(-c2noc(C3CN(C(=O)[C@H]4C[C@@H]4F)C3)n2)cc1NC(=O)c1cnn2ccc(N3CC4(COC4)C3)cc12 [Example 281-80] | > 1000 nM | > 1000 nM
8 | Cc1ccc(-c2noc(N3CC(F)(F)C3)n2)cc1NC(=O)c1cnn2ccc(N3CC4(COC4)C3)cc12 [Example 281-81] | 100 to 1000 nM | < 100 nM
9 | Cc1ccc(-c2noc(N3CC(O)(C(F)(F)F)C3)n2)cc1NC(=O)c1cnn2ccc(N3CC4(COC4)C3)cc12 [Example 281-82] | < 100 nM | < 100 nM
10 | Cc1ccc(-c2noc(N3CCOCC3)n2)cc1NC(=O)c1cnn2ccc(N3CC4(COC4)C3)cc12 [Example 281-83] | 100 to 1000 nM | < 100 nM
11 | Cc1ncc(-c2noc(C3CN(C(=O)C4(F)CC4)C3)n2)cc1NC(=O)c1cnn2ccc(N3CC4(C3)CC(O)(C(F)F)C4)cc12 [Example 281-84] | > 1000 nM | 100 to 1000 nM
12 | Cc1ncc(-c2noc(C3CN(C(=O)C4(F)CC4)C3)n2)cc1NC(=O)c1cnn2ccc(N3CC4(COC4)C3)cc12 [Example 281-85] | > 1000 nM | 100 to 1000 nM
13 | Cc1ncc(-c2noc(C3CN(C(=O)C4CC4)C3)n2)cc1NC(=O)c1cnn2ccc(N3CC4(C3)CC(O)(C(F)F)C4)cc12 [Example 281-86] | > 1000 nM | > 1000 nM
14 | Cc1ncc(-c2noc(C3CN(C(=O)C4CC4)C3)n2)cc1NC(=O)c1cnn2ccc(N3CC4(COC4)C3)cc12 [Example 281-87] | > 1000 nM | > 1000 nM
15 | Cc1ncc(-c2noc(C3CN(CC(F)(F)F)C3)n2)cc1NC(=O)c1cnn2ccc(N3CC4(C3)CC(O)(C(F)F)C4)cc12 [Example 281-88] | 100 to 1000 nM | < 100 nM
16 | Cc1ncc(-c2noc([C@H]3CC3(F)F)n2)cc1NC(=O)c1cnn2ccc(N3CC4(C3)CC(O)(C(F)F)C4)cc12 [Example 281-89] | 100 to 1000 nM | < 100 nM
17 | Cc1ncc(-c2noc(C3CN(C(=O)OC(C)(C)C)C3)n2)cc1NC(=O)c1cnn2ccc(N3CC4(C3)CC(O)(C(F)F)C4)cc12 [Example 281-90] | > 1000 nM | 100 to 1000 nM
18 | Cc1ncc(-c2noc(C3CN(C(=O)[C@H]4CC4(F)F)C3)n2)cc1NC(=O)c1cnn2ccc(N3CC4(C3)CC(O)(C(F)F)C4)cc12 [Example 281-91] | > 1000 nM | > 1000 nM
19 | Cc1ccc(-c2noc(C3CCN(C(=O)[C@H]4C[C@@H]4F)C3)n2)cc1NC(=O)c1cnn2ccc(N3CC4(COC4)C3)cc12 (some centres unmarked) [Example 281-92] | 100 to 1000 nM | 100 to 1000 nM
20 | Cc1ccc(-c2noc(C3CCN(C(=O)[C@H]4C[C@@H]4F)CC3)n2)cc1NC(=O)c1cnn2ccc(N3CC4(COC4)C3)cc12 [Example 281-93] | 100 to 1000 nM | 100 to 1000 nM
21 | O=C(Nc1cc(-c2noc([C@H]3C[C@@H]3F)n2)ccc1C1CC1)c1cnn2ccc(N3CC4(COC4)C3)cc12 [Example 281-94] | > 1000 nM | > 1000 nM
22 | Cc1sc(-c2noc([C@H]3C[C@@H]3F)n2)cc1NC(=O)c1cnn2ccc(N3CC4(C3)CC(O)(C(F)F)C4)cc12 [Example 281-95] | 100 to 1000 nM | < 100 nM
23 | Cc1ccc(-c2noc(C3CCN(C(=O)[C@H]4C[C@@H]4F)C3)n2)cc1NC(=O)c1cnn2ccc(N3CC4(C3)CC(O)(C(F)F)C4)cc12 (some centres unmarked) [Example 281-96] | 100 to 1000 nM | 100 to 1000 nM
24 | Cc1ccc(-c2noc(C3CCN(C(=O)[C@H]4C[C@@H]4F)CC3)n2)cc1NC(=O)c1cnn2ccc(N3CC4(C3)CC(O)(C(F)F)C4)cc12 [Example 281-97] | 100 to 1000 nM | 100 to 1000 nM
25 | Cc1ccc(-c2noc(N3CC(F)(F)C3)n2)cc1NC(=O)c1cnn2ccc(N3CC4(C3)CC(O)(C(F)F)C4)cc12 [Example 281-98] | < 100 nM | < 100 nM

Row | Structure (SMILES) | IC50 [1] | EC50 [2]
26 | Cc1ccc(-c2noc(N3CC(O)(C(F)(F)F)C3)n2)cc1NC(=O)c1cnn2ccc(N3CC4(C3)CC(O)(C(F)F)C4)cc12 [Example 281-99] | < 100 nM | < 100 nM
27 | Cc1ccc(-c2noc(N3CCOCC3)n2)cc1NC(=O)c1cnn2ccc(N3CC4(C3)CC(O)(C(F)F)C4)cc12 [Example 281-100] | 100 to 1000 nM | < 100 nM
28 | Cc1ncc(-c2noc(C3(F)CN(C(=O)OC(C)(C)C)C3)n2)cc1NC(=O)c1cnn2ccc(N3CC4(C3)CC(O)(C(F)F)C4)cc12 [Example 281-101] | > 1000 nM | 100 to 1000 nM
29 | Cc1ncc(-c2noc(C3(F)CN(C(=O)C(C)(F)F)C3)n2)cc1NC(=O)c1cnn2ccc(N3CC4(C3)CC(O)(C(F)F)C4)cc12 [Example 281-103] | 100 to 1000 nM | > 1000 nM
30 | COC(=O)N1CC(F)(c2nc(-c3cnc(C)c(NC(=O)c4cnn5ccc(N6CC7(C6)CC(O)(C(F)F)C7)cc45)c3)no2)C1 [Example 281-104] | > 1000 nM | > 1000 nM
31 | Cc1ncc(-c2noc(C3(F)CN(CC(F)F)C3)n2)cc1NC(=O)c1cnn2ccc(N3CC4(C3)CC(O)(C(F)F)C4)cc12 [Example 281-105] | 100 to 1000 nM | 100 to 1000 nM
32 | Cc1ccc(-c2noc(C3CC4(C3)CN(C(=O)[C@H]3C[C@@H]3F)C4)n2)cc1NC(=O)c1cnn2ccc(N3CC4(COC4)C3)cc12 [Example 281-106] | 100 to 1000 nM | 100 to 1000 nM
33 | Cc1ccc(-c2noc(C3CC4(C3)CN(C(=O)[C@H]3C[C@@H]3F)C4)n2)cc1NC(=O)c1cnn2ccc(N3CC4(C3)CC(O)(C(F)F)C4)cc12 [Example 281-107] | 100 to 1000 nM | 100 to 1000 nM
34 | COC(=O)N1CCC(c2nc(-c3ccc(C)c(NC(=O)c4cnn5ccc(N6CC7(C6)CC(O)(C(F)F)C7)cc45)c3)no2)C1 (centres unmarked) [Example 281-108] | < 100 nM | < 100 nM
35 | COC(=O)N1CC2(CC(c3nc(-c4ccc(C)c(NC(=O)c5cnn6ccc(N7CC8(C7)CC(O)(C(F)F)C8)cc56)c4)no3)C2)C1 [Example 281-109] | < 100 nM | 100 to 1000 nM
36 | CCOC(=O)N1CC(c2nc(-c3ccc(C)c(NC(=O)c4cnn5ccc(N6CC7(COC7)C6)cc45)c3)no2)C1 [Example 281-110] | < 100 nM | < 100 nM
37 | Cc1sc(-c2noc(C3(F)CN(C(=O)[C@H]4C[C@@H]4F)C3)n2)cc1NC(=O)c1cnn2ccc(N3CC4(C3)CC(O)(C(F)F)C4)cc12 [Example 281-111] | > 1000 nM | 100 to 1000 nM
38 | Cc1sc(-c2noc([C@H]3C[C@@H](OC(F)(F)F)C3)n2)cc1NC(=O)c1cnn2ccc(N3CC4(C3)CC(O)(C(F)F)C4)cc12 [Example 281-112] | < 100 nM | 100 to 1000 nM
39 | Cc1sc(-c2noc([C@H]3C[C@@H](OC(F)(F)F)C3)n2)cc1NC(=O)c1cnn2ccc(N3CC4(COC4)C3)cc12 [Example 281-113] | 100 to 1000 nM | 100 to 1000 nM
40 | Cc1sc(-c2noc(C3CN(C(=O)OC(C)(C)C)C3)n2)cc1NC(=O)c1cnn2ccc(N3CC4(COC4)C3)cc12 [Example 281-114] | > 1000 nM | > 1000 nM
41 | Cc1sc(-c2noc(C3CN(C(=O)OC(C)(C)C)C3)n2)cc1NC(=O)c1cnn2ccc(N3CC4(C3)CC(O)(C(F)F)C4)cc12 [Example 281-115] | > 1000 nM | > 1000 nM
42 | O=C(Nc1cc(-c2noc([C@H]3C[C@@H]3F)n2)ccc1C(F)F)c1cnn2ccc(N3CC4(COC4)C3)cc12 [Example 281-116] | 100 to 1000 nM | 100 to 1000 nM
43 | Cc1sc(-c2noc([C@H]3C[C@@H]3F)n2)cc1NC(=O)c1cnn2ccc(N3CC4(COC4)C3)cc12 [Example 281-117] | 100 to 1000 nM | 100 to 1000 nM
44 | O=C(Nc1cc(-c2noc([C@H]3C[C@@H]3F)n2)ccc1C(F)F)c1cnn2ccc(N3CC4(C3)CC(O)(C(F)F)C4)cc12 [Example 281-118] | 100 to 1000 nM | < 100 nM
45 | O=C(Nc1cc(-c2noc(N3CC(F)(F)C3)n2)ccc1Cl)c1cnn2ccc(N3CC4(C3)CC(O)(C(F)F)C4)cc12 [Example 281-119] | 100 to 1000 nM | < 100 nM
46 | Cc1ncc(-c2noc(N3CC(F)(F)C3)n2)cc1NC(=O)c1cnn2ccc(N3CC4(COC4)C3)cc12 [Example 281-120] | 100 to 1000 nM | 100 to 1000 nM
47 | Cc1ncc(-c2noc(N3CC(F)(F)C3)n2)cc1NC(=O)c1cnn2ccc(N3CC4(C3)CC(O)(C(F)F)C4)cc12 [Example 281-121] | 100 to 1000 nM | < 100 nM
48 | Cc1sc(-c2noc(C3CN(C(=O)C4CC4)C3)n2)cc1NC(=O)c1cnn2ccc(N3CC4(C3)CC(O)(C(F)F)C4)cc12 [Example 281-122] | 100 to 1000 nM | > 1000 nM
49 | O=C(Nc1cc(-c2noc(N3CC(O)(C(F)(F)F)C3)n2)ccc1Cl)c1cnn2ccc(N3CC4(COC4)C3)cc12 [Example 281-123] | < 100 nM | < 100 nM
